Results: US20240247080A1, “GLP1/GIP/NPY2 RECEPTOR TRIPLE AGONISTS” (Boehringer Ingelheim International GmbH, priority 2022, published 2024)
Read-outs that look alike come from different tables or passages of the source. Starred links: 1 amine or outer side, 2 acyl side, 3 side chain; linkers in the order of their positions; H or OH if unused. Non-standard residues stand in square brackets, D forms with d. Groups on a side chain read outwards from the residue. *: point of attachment. C20 diacid = O=C(O)CCCCCCCCCCCCCCCCCCC(=O)*; C18 diacid = O=C(O)CCCCCCCCCCCCCCCCC(=O)*; γGlu = O=C(O)[C@H](CCC(=O)[*:2])N[*:1]; εLys = N[C@@H](CCCCN[*:1])C(=O)[*:2]; hArg = N=C(N)NCCCC[C@H](N)C(=O)O; AEEA = NCCOCCOCC(=O)O; Aib = CC(C)(N)C(=O)O

Legend:
Type in all cases: cell-based
Conditions in all cases: CreLuc reporter gene assay
hNPY2R = biological target: T1, hNPY2R (Homo sapiens, UniProt P49146); assay: hNPY2R CreLuc reporter gene assay in 0.5% and 100% plasma
T1 construct: expressed in transfected cells; host or cells: HEK-293 cells carrying a CRE-luciferase reporter gene
T1 sequence (P49146 1-381): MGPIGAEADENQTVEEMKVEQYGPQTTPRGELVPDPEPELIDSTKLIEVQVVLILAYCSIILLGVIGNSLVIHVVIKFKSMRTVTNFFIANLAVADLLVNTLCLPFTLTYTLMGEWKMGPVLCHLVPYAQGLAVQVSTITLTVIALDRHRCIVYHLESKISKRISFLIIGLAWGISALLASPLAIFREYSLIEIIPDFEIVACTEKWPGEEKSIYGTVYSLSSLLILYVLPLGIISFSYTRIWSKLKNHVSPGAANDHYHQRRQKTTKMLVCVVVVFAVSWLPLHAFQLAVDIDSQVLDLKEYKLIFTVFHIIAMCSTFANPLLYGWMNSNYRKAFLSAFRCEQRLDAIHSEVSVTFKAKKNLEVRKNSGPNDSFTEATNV
Outline: (§1)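 HEK-293 cells co-expressing GLP-1 or NPY2 receptor and CHO cells expressing GIP receptor, each carrying a CRE-driven luciferase reporter, were stimulated with peptides for 4 hours at 37 °C. Luminescence was read after Bright-Glo addition. EC50 came from 8-point, four-decade curves fitted by variable-slope non-linear regression.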

hGIPR = biological target: T2, hGIPR (Homo sapiens, UniProt P48546); assay: hGIPR CreLuc reporter gene assay in 0.5% and 100% plasma
T2 construct: expressed in transfected cells; host or cells: CHO cells carrying a CRE-luciferase reporter gene
T2 sequence (P48546 22-466): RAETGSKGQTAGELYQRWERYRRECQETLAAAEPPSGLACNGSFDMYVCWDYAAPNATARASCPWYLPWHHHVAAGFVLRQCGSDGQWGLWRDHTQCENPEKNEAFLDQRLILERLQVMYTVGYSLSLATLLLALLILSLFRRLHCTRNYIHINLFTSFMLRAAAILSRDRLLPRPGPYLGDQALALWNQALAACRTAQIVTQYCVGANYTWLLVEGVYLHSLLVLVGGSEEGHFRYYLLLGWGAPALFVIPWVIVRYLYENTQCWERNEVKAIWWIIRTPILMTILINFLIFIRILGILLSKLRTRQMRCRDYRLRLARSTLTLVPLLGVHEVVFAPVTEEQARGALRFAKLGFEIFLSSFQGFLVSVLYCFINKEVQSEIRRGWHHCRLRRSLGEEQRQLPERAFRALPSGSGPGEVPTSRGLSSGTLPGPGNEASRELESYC
Outline: as §1

hGLP1R = biological target: T3, hGLP1R (Homo sapiens, UniProt P43220); assay: hGLP1R CreLuc reporter gene assay in 0.5% and 100% plasma
T3 construct: expressed in transfected cells; host or cells: HEK-293 cells carrying a CRE-luciferase reporter gene
T3 sequence (P43220 24-463): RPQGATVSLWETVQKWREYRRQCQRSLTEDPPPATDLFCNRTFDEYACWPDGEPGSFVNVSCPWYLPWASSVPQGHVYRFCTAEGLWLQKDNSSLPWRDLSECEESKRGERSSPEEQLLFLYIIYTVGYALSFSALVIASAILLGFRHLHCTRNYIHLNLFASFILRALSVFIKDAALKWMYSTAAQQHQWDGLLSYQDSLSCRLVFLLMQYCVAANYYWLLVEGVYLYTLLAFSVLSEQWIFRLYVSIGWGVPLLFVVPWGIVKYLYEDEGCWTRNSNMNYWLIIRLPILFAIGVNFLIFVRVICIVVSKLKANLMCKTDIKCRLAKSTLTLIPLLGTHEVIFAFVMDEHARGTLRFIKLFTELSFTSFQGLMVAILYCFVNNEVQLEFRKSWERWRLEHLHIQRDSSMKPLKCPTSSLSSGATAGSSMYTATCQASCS
Outline: as §1

[1] = 0.5% human plasma, read-out: hNPY2R 0.5% hP
[2] = 100% human plasma, read-out: hNPY2R 100% hP
[3] = 0.5% human plasma, read-out: hGIPR 0.5% hP
[4] = 100% human plasma, read-out: hGIPR 100% hP
[5] = 0.5% human plasma, read-out: hGLP1R 0.5% hP
[6] = 100% human plasma, read-out: hGLP1R 100% hP

Compound	EC50 (hNPY2R; [1])	EC50 (hNPY2R; [2])	EC50 (hGIPR; [3])	EC50 (hGIPR; [4])	EC50 (hGLP1R; [5])	EC50 (hGLP1R; [6])
H-Y[Aib]EGTFTSDYSI[Aib]LEKQAQ[Aib]AFVEWLIK([εLys-γGlu-γGlu-γGlu-γGlu-γGlu-γGlu-C20 diacid])GGPSSYVSLRHYYNWLTRQRY-NH2 [Compound 40, Y-Aib-E-G-T-F-T-S-D-Y-S-I-Aib-L-E-K-Q-A-Q-Aib-A-F-V-E-W-L-I-K(1,3)-GGPSSYVSLRHYYNWLTRQRY-NH2.C20DA-gGlu-gGlu-gGlu-gGlu-gGlu-gGlu-eLys(1,2)]	11.9 nM	26.4 nM	0.48 nM	4.36 nM	0.46 nM	
H-Y[Aib]EGTFTSDYSI[Aib]LEKQAQ[Aib]EFVQWLIK([γGlu-γGlu-γGlu-γGlu-γGlu-C18 diacid])GGPSEGASLRHYYNWLTRQRY-NH2 [Compound 141, Y-Aib-E-G-T-F-T-S-D-Y-S-I-Aib-L-E-K-Q-A-Q-Aib-E-F-V-Q-W-L-I-K(1,3)-GGPSEGASLRHYYNWLTRQRY-NH2.C18DA-gGlu-gGlu-gGlu-gGlu-gGlu(1,2)]	11.8 nM	35.3 nM	0.4 nM		0.25 nM	
H-Y[Aib]EGTFTSDYSI[Aib]LEKQAE[Aib]AFVQWLIK([εLys-γGlu-γGlu-γGlu-γGlu-γGlu-C18 diacid])GGPSEGASLRHYYNWLTRQRY-NH2 [Compound 138, Y-Aib-E-G-T-F-T-S-D-Y-S-I-Aib-L-E-K-Q-A-E-Aib-A-F-V-Q-W-L-I-K(1,3)-GGPSEGASLRHYYNWLTRQRY-NH2.C18DA-gGlu-gGlu-gGlu-gGlu-gGlu-eLys(1,2)]	18.3 nM		0.13 nM	0.81 nM	0.19 nM	
H-Y[Aib]EGTFTSDYSI[Aib]LEAQAQ[Aib]AFVEWLIK([εLys-γGlu-γGlu-γGlu-γGlu-γGlu-γGlu-C20 diacid])GGPSSGASLRHYYNWLTRQRY-NH2 [Compound 102, Y-Aib-E-G-T-F-T-S-D-Y-S-I-Aib-L-E-A-Q-A-Q-Aib-A-F-V-E-W-L-I-K(1,3)-GGPSSGASLRHYYNWLTRQRY-NH2.C20DA-gGlu-gGlu-gGlu-gGlu-gGlu-gGlu-eLys(1,2)]	24.8 nM		0.98 nM		0.33 nM	
CC[C@H](C)[C@H](NC(=O)[C@H](CC(C)C)NC(=O)[C@H](Cc1c[nH]c2ccccc12)NC(=O)[C@H](CCC(N)=O)NC(=O)[C@@H](NC(=O)[C@H](Cc1ccccc1)NC(=O)[C@H](C)NC(=O)C(C)(C)NC(=O)[C@H](CCC(N)=O)NC(=O)[C@H](C)NC(=O)[C@H](CCC(N)=O)NC(=O)[C@H](CCC(=O)O)NC(=O)[C@H](CCC(=O)O)NC(=O)[C@H](CC(C)C)NC(=O)C(C)(C)NC(=O)[C@@H](NC(=O)[C@H](CO)NC(=O)[C@H](Cc1ccc(O)cc1)NC(=O)[C@H](CC(=O)O)NC(=O)[C@H](CO)NC(=O)[C@@H](NC(=O)[C@H](Cc1ccccc1)NC(=O)[C@@H](NC(=O)CNC(=O)[C@H](CCC(=O)O)NC(=O)C(C)(C)NC(=O)[C@@H](N)Cc1ccc(O)cc1)[C@@H](C)O)[C@@H](C)O)[C@@H](C)CC)C(C)C)C(=O)N[C@@H](CCCCNC(=O)[C@@H](N)CCCCNC(=O)CC[C@H](NC(=O)CC[C@H](NC(=O)CC[C@H](NC(=O)[C@H](CCC(=O)O)NC(=O)CC[C@H](NC(=O)CC[C@H](NC(=O)CCCCCCCCCCCCCCCCCCC(=O)O)C(=O)O)C(=O)O)C(=O)O)C(=O)O)C(=O)O)C(=O)NCC(=O)NCC(=O)N1CCC[C@H]1C(=O)N[C@@H](CO)C(=O)N[C@@H](CO)C(=O)NCC(=O)N[C@@H](C)C(=O)N[C@@H](CO)C(=O)N[C@@H](CC(C)C)C(=O)N[C@@H](CCCNC(=N)N)C(=O)N[C@@H](Cc1c[nH]cn1)C(=O)N[C@@H](Cc1ccc(O)cc1)C(=O)N[C@@H](Cc1ccc(O)cc1)C(=O)N[C@@H](CC(N)=O)C(=O)N[C@@H](Cc1c[nH]c2ccccc12)C(=O)N[C@@H](CC(C)C)C(=O)N[C@H](C(=O)N[C@@H](CCCNC(=N)N)C(=O)N[C@@H](CCC(N)=O)C(=O)N[C@@H](CCCNC(=N)N)C(=O)N[C@@H](Cc1ccc(O)cc1)C(N)=O)[C@@H](C)O [Compound 30, Y-Aib-E-G-T-F-T-S-D-Y-S-I-Aib-L-E-E-Q-A-Q-Aib-A-F-V-Q-W-L-I-K(1,3)-GGPSSGASLRHYYNWLTRQRY-NH2.C20DA-gGlu-gGlu-Glu-gGlu-gGlu-gGlu-eLys(1,2)]	13.3 nM	56.3 nM	0.13 nM	1.06 nM	0.08 nM	
H-Y[Aib]EGTFTSDYSI[Aib]LEKQAQ[Aib]AFVEWLIK([AEEA-AEEA-γGlu-γGlu-γGlu-γGlu-C18 diacid])GGPSSGASLRHYYNWLTRQRY-NH2 [Compound 254, Y-Aib-E-G-T-F-T-S-D-Y-S-I-Aib-L-E-K-Q-A-Q-Aib-A-F-V-E-W-L-I-K(1,3)-GGPSSGASLRHYYNWLTRQRY-NH2.C18DA-gGlu-gGlu-gGlu-gGlu-OEG-OEG(1,2)]	17.8 nM	30.9 nM	0.22 nM	0.63 nM	0.07 nM	1.69 nM
H-Y[Aib]EGTFTSDYSI[Aib]LEKQAQ[Aib]AFVEWLIK([εLys-γGlu-γGlu-γGlu-γGlu-γGlu-γGlu-C20 diacid])GGPSEGQSLRHYYNWLTRQRY-NH2 [Compound 227, Y-Aib-E-G-T-F-T-S-D-Y-S-I-Aib-L-E-K-Q-A-Q-Aib-A-F-V-E-W-L-I-K(1,3)-GGPSEGQSLRHYYNWLTRQRY-NH2.C20DA-gGlu-gGlu-gGlu-gGlu-gGlu-gGlu-eLys(1,2)]	10.2 nM		0.06 nM	1.23 nM	0.13 nM	3.07 nM
H-Y[Aib]EGTFTSDYSI[Aib]LEKEAQ[Aib]KFVEWLIK([εLys-γGlu-γGlu-γGlu-γGlu-γGlu-γGlu-C20 diacid])GGPSSGASLRHYYNWLTRQRY-NH2 [Compound 46, Y-Aib-E-G-T-F-T-S-D-Y-S-I-Aib-L-E-K-E-A-Q-Aib-K-F-V-E-W-L-I-K(1,3)-GGPSSGASLRHYYNWLTRQRY-NH2.C20DA-gGlu-gGlu-gGlu-gGlu-gGlu-gGlu-eLys(1,2)]	10.2 nM	36 nM	0.2 nM	1.21 nM	0.21 nM	
H-Y[Aib]EGTFTSDYSI[Aib]LEKQAQ[Aib]AFVEWLIK([γGlu-γGlu-γGlu-γGlu-γGlu-C20 diacid])GGPSEGASLRHYYNWLTRQRY-NH2 [Compound 289, Y-Aib-E-G-T-F-T-S-D-Y-S-I-Aib-L-E-K-Q-A-Q-Aib-A-F-V-E-W-L-I-K(1,3)-GGPSEGASLRHYYNWLTRQRY-NH2.C20DA-gGlu-gGlu-gGlu-gGlu-gGlu(1,2)]	11.1 nM	56.3 nM	0.7 nM	1.75 nM	0.14 nM	
H-Y[Aib]EGTFTSDYSI[Aib]LEKQAQ[Aib]AFVEWLIK([AEEA-AEEA-γGlu-γGlu-γGlu-γGlu-C18 diacid])GGPSEPASLRHYYNWLTRQRY-NH2 [Compound 256, Y-Aib-E-G-T-F-T-S-D-Y-S-I-Aib-L-E-K-Q-A-Q-Aib-A-F-V-E-W-L-I-K(1,3)-GGPSEPASLRHYYNWLTRQRY-NH2.C18DA-gGlu-gGlu-gGlu-gGlu-OEG-OEG(1,2)]	10.9 nM		0.23 nM	1.56 nM	0.18 nM	
H-Y[Aib]EGTFTSDYSI[Aib]LEKQAQ[Aib]AFVEWLIK([εLys-γGlu-γGlu-γGlu-γGlu-γGlu-γGlu-C20 diacid])GGPSSGAS[Aib]RHYYNWLT[hArg]QR[dY]-NH2 [Compound 26, Y-Aib-E-G-T-F-T-S-D-Y-S-I-Aib-L-E-K-Q-A-Q-Aib-A-F-V-E-W-L-I-K(1,3)-G-G-P-S-S-G-A-S-Aib-R-H-Y-Y-N-W-L-T-hArg-Q-R-DTyr-NH2.C20DA-gGlu-gGlu-gGlu-gGlu-gGlu-gGlu-eLys(1,2)]	> 100 nM		0.09 nM	0.7 nM	0.07 nM	1.18 nM
